# Data from patent EP0394314B2, “MULTIPLE STEP ENTRAPMENT/LOADING PROCEDURE FOR PREPARING […]-[…]” (VESTAR, INC., priority 1987, dated 1989).
# Where a name gives a salt, the structure may show the parent alone.
# How the values were obtained:
# [1] = tested on: White blood cell (w.b.c.) counts; assay: White blood cell counts after doxorubicin treatment; type: in vivo, CD2F1 mice; settings: doxorubicin dose 40 mg/kg (for the equivalent hydrochloride); four days post therapy
# Protocol: White blood cell (w.b.c.) counts were performed on CD2F1 mice receiving doxorubicin doses of 40 mg/kg (for the equivalent hydrochloride). Mice receiving free drug experienced severe depression in w.b.c. counts: at four days post therapy, counts were only 8.5% of pretherapy values. In contrast, mice treated with doxorubicin vesicles prepared in accordance with this invention (Example III) at the same doxorubicin dosage experienced only moderate suppression in w.b.c. counts: at four days post therapy, counts were 75% of pretherapy values.
# [2] = Toxicity of doxorubicin vesicles versus free drug, intravenous tests in mice; type: in vivo; settings: 20 mg/kg or equivalent dose
# Text: In nearly all instances of vesicle-entrapped doxorubicin reported in the literature, the loaded vesicles are less toxic than the free drug.
# Doxorubicin vesicles can also be prepared with citric acid.
# [3] = Maximum tolerated dose of a single intravenous dose; settings: mouse, in vivo, CD2F1 mice, vesicles normalized to the hydrochloride, read-out: maximum tolerated dose (MTD, non-lethal)
# Protocol: This compares to an MTD of about 40 mg/kg (normalized to the hydrochloride) for doxorubicin vesicles prepared as described in Example III. In contrast, the MTD for doxorubicin vesicles, when prepared as described in Example III with the exception that citric acid was substituted for lactobionic acid, was only about 10 mg/kg, less than the MTD for the free drug.
smiles,measurement,setting,value
COc1cccc2c1C(=O)c1c(O)c3c(c(O)c1C2=O)C[C@@](O)(C(=O)CO)C[C@@H]3O[C@H]1C[C@H](N)[C@H](O)[C@H](C)O1 [doxorubicin hydrochloride],"w.b.c. counts, % of pretherapy values",[1],8.5%
same,tolerance of dose,[2],tolerated
same,MTD,[3],~25 mg/kg
